Like-named read-outs stand apart in the source and are kept apart here.
Legend:
Format in all cases: in vivo
[1] = test system: German cockroach, Blattella germanica (L.); assay: Fumigant toxicity in sealed glass jar, German cockroach; settings: 30-60 adult males; for mortality at 50 µL/jar: Blattella germanica, inhaled or nasal
Protocol: (§1) As shown below, Table 1 depicts the toxicity of both monoiodinated and diiodinated hydrocarbons to both the German and the American cockroach after 1 hour of exposure.
(§2) Shown in Table 2 is the toxicity of both monoiodinated and diiodinated hydrocarbons to the German and American cockroach and the Cowpea weevil after 24 hours of exposure.
(§3) In this experiment both the insecticidal and nematicidal properties of iodinated hydrocarbons were compared. In determining the insecticidal properties of the iodinated hydrocarbons, both American (Periplaneta americana) and German (Blattella germanica) cockroaches were used. Groups of cockroaches were confined in 0.95-liter glass jars with a small cotton ball. Exactly 50 μl of a test chemical was applied to the cotton ball and the jar was sealed. Knockdown, defined as the inability to walk in a coordinated manner, and mortality were assessed every 15 minutes for the first hour and hourly thereafter for 8 hours and again after 24 hours.

[2] = test system: Cowpea weevil, Callosobruchus maculatus (F.); assay: Fumigant toxicity, Cowpea weevil; design: concentration or dose not given beside the values; settings: 30 adults
Protocol: as §2

[3] = test system: Heterodera glycines; assay: Greenhouse nematicide test, diiodinated C2-C8 hydrocarbons in infested field soil (Experiments 1 and 2); settings: rates ≧5.0 mg
Protocol: (§4) Additionally, the nematicidal properties of iodinated hydrocarbons were investigated in greenhouse experiments with field soil infested with Meloidogyne arenaria and Heterodera Glycines. Chemicals were added directly to infested solid at rates <100 mg/Kg soil. Treated soil was kept moist (approximately 60 percent field capacity) and uncovered for 7-10 days when samples were collected, and the pots were planted with ‘Brim’ soybean, Glycine max. […] 1,2-diiodoethane (C2), 1,3-diiodopropane (C3), 1,4-diiodobutane (C4), 1,5-diiodopentane (C5), 1,6-diiodohexane (C6), and […] were applied to soil rates of 2.5, 5.0, 7.5, and 10 mg/Kg soil. All rates of C2 and C8 were ineffective in reducing M. arenaria juvenile (J2) populations in preplant samples. This was also true for C2 and J2 populations of H. glycines; however, […] rates ≧5.0 mg suppressed J2 populations of H. glycines. […] H. glycines J2 numbers in final soil samples were generally inversely related to rates for C3-C8. […] Applications of C3-C6 to soil increased shoot weights in a manner directly related to dosages but only in a curvilinear pattern.
(§5) In this experiment, the nematicidal properties of various diiodinated hydrocarbons were compared. The nematicidal properties of diiodinated C2-C8 normal hydrocarbons was assessed in a greenhouse experiment with field soil infested with Meloidogyne arenaria [Ma] and Heterodera glycines [Hg]. 1,2-diiodoethane [C2], 1,3-diiodopropane [C3], 1,4-diiodobutane [C4], 1.5-diiodopentane [C5], 1,6-diiodohexane [C6] and 1,8-diiodooctane [C8] were applied to soil at rates of 2.5, 5.0, 7.5, and 10.0 mgs/kg soil. The potted soil was kept moist in a greenhouse for 10 days when preplant samples were collected for analysis, and the pots were planted with ‘Brim’ soybean [Glycine max]. After 7 weeks of growth, the plants were removed and final soil samples taken. Data was collected on weights of fresh roots and shoots, root galling by Ma, and numbers of nematodes in soil and roots. All rates of C2 and C8 were ineffective in reducing Ma juvenile [J2] populations in the preplant samples. This was also true for C2 and J2 populations of Hg; however, C8 rates ≧5.0 mg suppressed J2 populations of Hg. […] Hg J2 numbers in final soil samples were generally inversely related to rates for C3-C8. This pattern of suppression in J2 numbers was also applicable to Ma in the final soil samples but only for C3-C6. […] Applications of C3-C6 to soil increased shoot weights in a manner directly related to dosages but non-linear in pattern.

[4] = test system: Meloidogyne arenaria; assay: as above; settings: for M. arenaria J2 populations in preplant samples: rates ≧5.0 mg
Protocol: as §4, §5

[5] = test system: American (Periplaneta americana) and German (Blattella germanica) cockroaches; assay: Knockdown and mortality of cockroaches in sealed jar (both species); settings: for Sensitivity of American cockroaches compared with German cockroaches: in vivo; for Knockdown of cockroaches: within 1 hour after treatment, 50 μl on cotton ball in sealed 0.95-liter jar
Protocol: In this experiment both the insecticidal and nematicidal properties of iodinated hydrocarbons were compared. In determining the insecticidal properties of the iodinated hydrocarbons, both American (Periplaneta americana) and German (Blattella germanica) cockroaches were used. Groups of cockroaches were confined in 0.95-liter glass jars with a small cotton ball. Exactly 50 μl of a test chemical was applied to the cotton ball and the jar was sealed.

[6] = test system: American cockroach, Periplaneta americana (L.); assay: Fumigant toxicity in sealed glass jar, American cockroach; settings: 8-36 adult males; for mortality at 50 µL/jar: Periplaneta americana, inhaled or nasal
Protocol: as §1, §2, §3

[7] = test system: cyst [Heterodera glycines]; assay: Greenhouse nematicide test, iodinated C1-C3 hydrocarbons (Experiment 4); settings: 10 days after application; all dosages (0.1, 0.2, 0.4 ml/kg soil)
Protocol: (§6) In this experiment, the nematicidal properties of low molecular weight iodinated hydrocarbons were investigated. The nematicidal properties of iodinated C1-C3 hydrocarbons were evaluated in greenhouse experiments with field soil infested with root-knot [Meloidogyne arenaria] and cyst [Heterodera glycines] nematodes. lodomethane, di-iodomethane, iodoethane, di-iodoethane, and 1-iodopropane were added to soil at rates of 0.1, 0.2 and 0.4 ml/kg soil.
(§7) The treated soil was kept moist for 10 days when soil samples were taken for nematode analysis and ‘Brim’ soybean [Glycine max] planted. Soybeans were allowed to grow for 8 weeks and then were removed from the soil to determine plant growth, root-knot indices and the number of galls generated by M arenaria. […] All compounds except 1-iodopropane increased fresh shoot weight when applied at ≧0.1 ml/kg soil.

[8] = test system: root-knot [Meloidogyne arenaria]; assay: as above; settings: for M. arenaria [J2] juvenile populations in soil: 10 days after application, all rates (0.1, 0.2, 0.4 ml/kg soil)
Protocol: as §6, §7

[9] = test system: 'Brim' soybean [Glycine max]; assay: Soybean growth in treated soil (Experiments 1 and 2)
Protocol: as §4, §5

[10] = 1 h exposure, read-out: % Mortality after 1 h exposure, German cockroach
[11] = 24 h exposure, read-out: % Mortality after 24 h exposure, German cockroach
[12] = 1 h exposure, read-out: % Mortality after 1 h exposure, American cockroach
[13] = 24 h exposure, read-out: % Mortality after 24 h exposure, American cockroach

SMILES: ICCCCCI [1,5-diiodopentane]
- mortality at 50 µL/jar [1, 10]: 0%
- mortality at 50 µL/jar [1, 11]: 0%
- % Mortality after 24 h exposure, Cowpea weevil [2]: 37%
- H. glycines J2 populations in preplant samples [3]: virtually eliminated
- M. arenaria J2 populations in preplant samples [4]: virtually eliminated
- Sensitivity of American cockroaches compared with German cockroaches [5]: more sensitive
- mortality at 50 µL/jar [6, 12]: 11%
- mortality at 50 µL/jar [6, 13]: 0%

SMILES: CCCI [1-iodopropane]
- % Mortality after 1 h exposure, German cockroach ([1]; 1 h exposure): 100%
- % Mortality after 24 h exposure, German cockroach ([1]; 24 h exposure): 100%
- % Mortality after 24 h exposure, Cowpea weevil [2]: 97%
- H. glycines J2 populations in soil [7]: ineffective
- M. arenaria [J2] juvenile populations in soil ([8]; listed as 1 iodopropane): ineffective
- M. arenaria [J2] juvenile populations in soil ([8]; listed as iodopropane): increased directly
- Root galling (root knot) by M. arenaria ([8]; soybean after 8 weeks, rates 0.1-0.4 ml/kg soil): no significant effect
- Knockdown of cockroaches [5]: 100%
- % Mortality after 1 h exposure, American cockroach ([6]; 1 h exposure): 100%
- % Mortality after 24 h exposure, American cockroach ([6]; 24 h exposure): 100%

SMILES: ICCCCCCI [1,6-diodohexane, 1,6-diiodohexane]
- mortality at 50 µL/jar [1, 10]: 0%
- mortality at 50 µL/jar [1, 11]: 0%
- % Mortality after 24 h exposure, Cowpea weevil [2]: 0%
- H. glycines J2 populations in preplant samples [3]: virtually eliminated
- M. arenaria J2 populations in preplant samples [4]: virtually eliminated
- Sensitivity of American cockroaches compared with German cockroaches [5]: more sensitive
- mortality at 50 µL/jar [6, 12]: 5%
- mortality at 50 µL/jar [6, 13]: 0%

SMILES: ICCCCCCCCI [1,8-diiodooctane]
- mortality at 50 µL/jar [1, 10]: 0%
- mortality at 50 µL/jar [1, 11]: 0%
- Shoot weights of soybean ([9]; 2.5 mg rate): increased shoot weights slightly
- Shoot weights of soybean ([9]; rates higher than 2.5 mg): no significant effect
- % Mortality after 24 h exposure, Cowpea weevil [2]: 0%
- H. glycines J2 populations in preplant samples [3]: suppressed
- M. arenaria juvenile (J2) populations in preplant samples ([4]; all rates (2.5, 5.0, 7.5, 10 mg/Kg soil)): ineffective
- M. arenaria J2 numbers in final soil samples ([4]; final soil samples after soybean growth, rates 2.5-10 mg/kg soil): did not change significantly
- mortality at 50 µL/jar [6, 12]: 0%
- mortality at 50 µL/jar [6, 13]: 0%

SMILES: CCI [iodoethane]
- mortality at 50 µL/jar [1, 10]: 100%
- mortality at 50 µL/jar [1, 11]: 100%
- % Mortality after 24 h exposure, Cowpea weevil [2]: 100%
- H. glycines J2 populations in soil [7]: ineffective
- M. arenaria [J2] juvenile populations in soil [8]: ineffective
- Gall formation by M. arenaria ([8]; applied at ≧0.2 ml/kg soil): Significant suppression
- Knockdown of cockroaches [5]: 100%
- mortality at 50 µL/jar [6, 12]: 100%
- mortality at 50 µL/jar [6, 13]: 100%

SMILES: IC(I)=C(I)I [tetraiodoethylene]
- mortality at 50 µL/jar [1, 10]: 0%
- mortality at 50 µL/jar [1, 11]: 3%
- % Mortality after 24 h exposure, Cowpea weevil [2]: 0%
- mortality at 50 µL/jar [6, 12]: 0%
- mortality at 50 µL/jar [6, 13]: 0%

From US6465527B1, “Iodinated hydrocarbon pesticide” (priority 1999, dated 2002)
